In ChEMBL document CHEMBL5365442, “A novel chalcone derivative exerts anticancer effects by promoting apoptotic cell death of human pancreatic cancer cells” (Bioorg Med Chem, 2023):
Active and inactive are the calls of the source. The calls are words filed in the database; no cut-off is given here.

Tests used:
BXPC-3 [1] = assay: Induction of apoptosis in human BXPC-3 cells assessed as increase in cleaved PARP level at 10 uM incubated for 24 hrs by Western blot analysis; assay type: functional, cell-based
BXPC-3 [2] = assay: Antiproliferative activity against human BXPC-3 cells assessed as inhibition of cell growth incubated for 24 hrs by WST-1 assay; assay type: functional, cell-based; settings: BXPC-3, 24 h
BXPC-3 [3] = assay: Antiproliferative activity against human BXPC-3 cells assessed as inhibition of cell growth incubated for 48 hrs by WST-1 assay; assay type: functional, cell-based; settings: BXPC-3, 48 h
BXPC-3 [4] = assay: Antiproliferative activity against human BXPC-3 cells assessed as inhibition of cell growth incubated for 72 hrs by WST-1 assay; assay type: functional, cell-based; settings: BXPC-3, 72 h
BXPC-3 [5] = assay: Induction of mitochodrial fission in human BXPC-3 cells assessed as reduction in mitochondrial length at 10 uM incubated for 24 hrs by MitoTracker Red CMX ROS staining based confocal microscopic analysis; assay type: functional, cell-based
BXPC-3 [6] = assay: Induction of apoptosis in human BXPC-3 cells assessed as increase in cleaved caspase 3 level at 10 uM incubated for 24 hrs by Western blot analysis; assay type: functional, cell-based
BXPC-3 [7] = assay: Induction of apoptosis in human BXPC-3 cells assessed as increase in lipid level at 10 uM incubated for 24 hrs by SRS microspectroscopic analysis; assay type: functional, cell-based
[8] = 1-octanol/PBS partition coefficient, logD of the compound at pH 7.4 by HPLC analysis; assay type: physicochemical
BXPC-3 [9] = assay: Induction of apoptosis in human BXPC-3 cells assessed as increase in cleaved PARP level at 30 uM incubated for 24 hrs by Western blot analysis; assay type: functional, cell-based
BXPC-3 [10] = assay: Induction of apoptosis in human BXPC-3 cells assessed as increase in number of dead cells at 30 uM incubated for 24 hrs by EthD-1 staining based fluorescence microscopic analysis relative to control; assay type: functional
BXPC-3 [11] = assay: Induction of apoptosis in human BXPC-3 cells assessed as nuclear condensation at 30 uM incubated for 24 hrs by Hoechst staining based confocal microscopic analysis; assay type: functional, cell-based
BXPC-3 [12] = assay: Induction of apoptosis in human BXPC-3 cells assessed as decrease in number of anti-Ki67 cells at 30 uM incubated for 24 hrs by anti-Ki67 staining based confocal microscopic analysis; assay type: functional, cell-based
BXPC-3 [13] = assay: Induction of mitochodrial fission in human BXPC-3 cells assessed as reduction in mitochondrial length at 30 uM incubated for 24 hrs by MitoTracker Red CMX ROS staining based confocal microscopic analysis relative to control; assay type: functional; design: scale not given: the % may be the effect or the level left
[14] = Downregulation of phosphorylated ERK protein expression in human BXPC-3 cells at 10 to 30 uM incubated for 24 hrs by Western blot analysis relative to control; assay type: functional; settings: dose 10-30 µM
[15] = Upregulation of phosphorylated p38 protein expression in human BXPC-3 cells at 10 to 30 uM incubated for 24 hrs by Western blot analysis relative to control; assay type: functional; settings: dose 10-30 µM
BXPC-3 [16] = assay: Induction of apoptosis in human BXPC-3 cells assessed as increase in cleaved caspase 3 level at 10 to 30 uM incubated for 24 hrs by Western blot analysis; assay type: functional, cell-based; settings: dose 10-30 µM
BXPC-3 [17] = assay: Induction of apoptosis in human BXPC-3 cells assessed as increase in BAX/Bcl-2 mRNA expression ratio at 30 uM incubated for 24 hrs by RT-PCR analysis relative to control; assay type: functional
BXPC-3 [18] = assay: Induction of apoptosis in human BXPC-3 cells assessed as enlargement of cells at 30 uM incubated for 24 hrs by SRS microspectroscopic analysis; assay type: functional, cell-based
BXPC-3 [19] = assay: Induction of apoptosis in human BXPC-3 cells assessed as porous appearance at 30 uM incubated for 24 hrs by SRS microspectroscopic analysis; assay type: functional, cell-based
BXPC-3 [20] = assay: Induction of apoptosis in human BXPC-3 cells assessed as membrane blebbing at 30 uM incubated for 24 hrs by SRS microspectroscopic analysis; assay type: functional, cell-based
BXPC-3 [21] = assay: Induction of apoptosis in human BXPC-3 cells assessed as accretion of lipid-like substances at 30 uM incubated for 24 hrs by SRS microspectroscopic analysis; assay type: functional, cell-based
BXPC-3 [22] = assay: Induction of apoptosis in human BXPC-3 cells assessed as increase in intensity of lipid-associated SRS bands at 30 uM incubated for 24 hrs by SRS microspectroscopic analysis; assay type: functional, cell-based
BXPC-3 [23] = assay: Induction of apoptosis in human BXPC-3 cells assessed as decrease in intensity of protein-associated SRS bands at 30 uM incubated for 24 hrs by SRS microspectroscopic analysis; assay type: functional, cell-based

In the case of `Nc1ccn([C@@H]2O[C@H](CO)[C@@H](O)C2(F)F)c(=O)n1` [GEMCITABINE], the Activity (BXPC-3 [1]) is reported as “Active”, the IC50 (BXPC-3 [2]) is reported as 12.2 µM and the IC50 (BXPC-3 [3]) is reported as 6.83 µM. The IC50 (BXPC-3 [4]) was 5.51 µM, the Activity (BXPC-3 [5]) was “Active” and the Activity (BXPC-3 [6]) was “Active”. For the same molecule, the Activity (BXPC-3 [7]) was “Active”.
`COc1ccc(O)c(C(=O)/C=C/c2cccc(OC)c2OC)c1` gave a logD [8] of 2.98, an IC50 (BXPC-3 [2]) of 26.3 µM and an IC50 (BXPC-3 [3]) of 27.1 µM. It also gave an IC50 (BXPC-3 [4]) of 24 µM.
In the case of `COc1ccc(OCC(O)CO)c(C(=O)/C=C/c2cccc(OC)c2OC)c1` (stereo not given), the Activity (BXPC-3 [9]) is reported as “Active”, the logD [8] is reported as 2.42 and the IC50 (BXPC-3 [2]) is reported as 32.1 µM. It also gave an IC50 (BXPC-3 [3]) of 11.7 µM, an IC50 (BXPC-3 [4]) of 7.94 µM and an Activity (BXPC-3 [10]) of 256.18%. The Activity (BXPC-3 [11]) was “Active”, the Activity (BXPC-3 [12]) was “Active” and the Activity (BXPC-3 [13]) was 16%. The Activity [14] was 50%, the Activity [15] was 367.3% and the Activity (BXPC-3 [16]) was “Active”. For the same molecule, the Activity (BXPC-3 [17]) was 217.4%, the Activity (BXPC-3 [18]) was “Active” and the Activity (BXPC-3 [19]) was “Active”. For the same molecule, the Activity (BXPC-3 [20]) was “Active”, the Activity (BXPC-3 [21]) was “Active” and the Activity (BXPC-3 [22]) was “Active”. The Activity (BXPC-3 [23]) was “Active”.
